Values of other authors, collected in patent US11478463B2, “Mast cell stabilizers for treatment of chronic inflammatory conditions” (Emergo Therapeutics, Inc., priority 2016, dated 2022).

Assays:
[1] = ketotifen 2 mg per dose, twice daily
[2] = patients
[3] = in vivo

Structure (SMILES): CN1CCC(=C2c3ccccc3CC(=O)c3sccc32)CC1 [ketotifen]
- steady state level [1]: ~2 ng/mL
- time to approach steady state level [1]: at least 2.5 days
- drowsiness [2]: causes extreme drowsiness in many patients

Structure (SMILES): O=C1Cc2ccccc2C(=C2CCNCC2)c2ccsc21 [norketotifen]
- drowsiness [2]: does not cause drowsiness
- half-life relative to ketotifen [3]: longer half-life than ketotifen
